Entries after “also recorded” stand apart in the source; their conditions may differ.
What was measured:
Assay type in all cases: cell-based
[1] = test system: BxPC-3 cells; test: Wound-healing assay, BxPC-3 cells; settings: BxPC-3 cells that harbor no KRAS mutation, various concentrations, 18 h (FIG. 7B, 7D)
Method: (§1) FIGS. 7A-7E. SUMO inhibitor blocks migration of pancreatic cancer cells with KRASV12 mutation. (FIG. 7A) MiaPaCa-2 cells transfected with various KRAS expression constructs or the vector as indicated for 24 h. A GFP-expressing plasmid was used for co-transfection. Transfected cells were then used for wound-healing assays as described in Methods. Representative images of the assay and GFP expression are shown. (FIG. 7B) Both BxPC-3 and MiaPaCa-2 cells were employed for wound-healing assays. Cells with open scratches were treated with various concentrations of 2-D08 for 18 h. Representative images of cells before and after recovery in the presence of 2-D08 for 18 h are shown. (FIG. 7C & FIG. 7D) Data were summarized from experiments as shown in A and B, respectively. (FIG. 7E) MiaPaCa-2 cells treated with or without 2-D08 were lysed and equal amounts of cell lysates were blotted with antibodies to N-Cadherin, ZEB1/TCF8, ZO-1, PARP-1 and B-actin, respectively.
(§2) RAS proteins were the first, and remain the best-studied, oncoproteins. However, to date no compounds that target RAS have been approved for clinic applications for cancer treatment. As a proof-of-principle study, we next determined whether 2-D08 that blocks RAS sumoylation (FIG. 2A) would suppress tumor cell migration in a KRAS-dependent manner. […]

[2] = test system: KRAS sumoylation; test: KRAS sumoylation in transfected MiaPaCa-2 cells (Flag immunoprecipitation, HA blot); settings: MiaPaCa-2 cells transfected with Flag-KRAS and HA-SUMO3, treated 18 h (FIG. 2A)
Method: FIGS. 2A-2E. Lysine 42 is a primary site for sumoylation. (FIG. 2A) MiaPaCa-2 cells were transfected with Flag-KRAS and HA-SUMO3 expression constructs for 24 h and then treated with or without 2-D08 for 18 h. Cells were then lysed and equal amounts of the lysates were immunoprecipitated with the anti-Flag antibody. Flag precipitates, along with lysate inputs, were blotted with antibodies to HA and Flag, respectively. (FIG. 2B) HEK293T cells were co-transfected with plasmid constructs expressing Flag-KRAS, HA-SUMO3, and SENP isoforms as indicated. Equal amounts of protein lysates were immunoprecipitated with the anti-Flag antibody. Flag immunoprecipitates were immunoblotted with antibodies to Flag or HA. […]
Total cell lysates were prepared in a buffer [50 mM Tris-HCl (pH 7.5), 150 mM NaCl, 1% IGEPAL, 0.1% SDS, and 0.5% sodium deoxycholate] supplemented with a mixture of protease and phosphatase inhibitors. […] Protein concentrations were measured using the bicinchoninic acid protein assay reagent kit (Pierce Chemical Co). […]
HEK-293T cells were lysed in TBSN buffer [20 mM Tris-Cl (pH 8.0), 150 mM NaCl, 0.5% NP-40, 5 mM EGTA, 1.5 mM EDTA, 0.5 mM Na3VO4, and […]-Glycerol phosphate]. […] After incubation, proteins bound to each resin were washed extensively with the binding buffer, eluted in the SDS-PAGE sample buffer, and analyzed by SDSPAGE.

[3] = test system: ZEB1/TCF8, ZO-1 expression in MiaPaCa-2 cells; test: Immunoblot of migration/EMT gene products in MiaPaCa-2 cells
Method: as §1
RAS proteins were the first, and remain the best-studied, oncoproteins. However, to date no compounds that target RAS have been approved for clinic applications for cancer treatment. As a proof-of-principle study, we next determined whether 2-D08 that blocks RAS sumoylation (FIG. 2A) would suppress tumor cell migration in a KRAS-dependent manner.
Total cell lysates were prepared in a buffer [50 mM Tris-HCl (pH 7.5), 150 mM NaCl, 1% IGEPAL, 0.1% SDS, and 0.5% sodium deoxycholate] supplemented with a mixture of protease and phosphatase inhibitors. HEK293T Tet-on cells were engineered to express KRASV12 or KRASV12/42R mutants in the presence of doxycycline. At various times post addition of doxycycline, cells were collected and lysed in the same buffer as above. Protein concentrations were measured using the bicinchoninic acid protein assay reagent kit (Pierce Chemical Co). Equal amounts of protein lysates from various samples were used for SDS-PAGE analysis followed by immunoblotting. […]

[4] = test system: MiaPaCa-2 cells; test: Wound-healing assay, MiaPaCa-2 cells; settings: MiaPaCa-2 cells (KRASV12), various concentrations, 18 h (FIG. 7B, 7D)
Method: as §1, §2

[5] = MiaPaCa-2 cells, immunoblot (FIG. 7E)

O=c1cc(-c2ccc(O)c(O)c2O)oc2ccccc12 [2-D08, 2-(2,3,4-Trihydroxyphenyl)-4H-chromen-4-one]
cell migration (wound healing) [1]: did not have an effect on inhibiting cell migration | KRAS sumoylation [2]: blocked KRAS sumoylation in a concentration-dependent manner | expression of ZEB1/TCF8 [3, 5]: suppressed expression of ZEB1/TCF8 | expression of ZO-1 [3, 5]: promoted expression of ZO-1 | expression of genes involved in EMT ([3]; pancreatic cancer cells with KRASV12 (FIG. 7)): suppresses expression of genes involved in EMT | cell migration (wound healing) [4]: blocked MiaPaCa-2 cell migration in a concentration-dependent manner; also recorded: reduces migration rate of pancreatic cancer cells with KRASV12 in a concentration-dependent manner
